We go through three compounds from patent US4289762A, “10-(1,2-Propadienyl) steroids as irreversible aromatase inhibitors” (Merrell Dow Pharmaceuticals Inc., priority 1980, dated 1981).

Values joined by “and” are separate entries in the source; they are usually repeats but may differ in a detail not shown here. Equal values may be shown once. “Also recorded” adds a separate entry of the source. Read-outs that look alike come from different tables or passages of the source.

Common to all, as to experiment: biochemical
The target of assay [1] is T1, aromatase (Homo sapiens, UniProt P11511).
T1 construct: microsomal fraction isolated from human placenta; from tissue; host or cells: human placenta, microsomal fraction
T1 sequence (P11511 1-503): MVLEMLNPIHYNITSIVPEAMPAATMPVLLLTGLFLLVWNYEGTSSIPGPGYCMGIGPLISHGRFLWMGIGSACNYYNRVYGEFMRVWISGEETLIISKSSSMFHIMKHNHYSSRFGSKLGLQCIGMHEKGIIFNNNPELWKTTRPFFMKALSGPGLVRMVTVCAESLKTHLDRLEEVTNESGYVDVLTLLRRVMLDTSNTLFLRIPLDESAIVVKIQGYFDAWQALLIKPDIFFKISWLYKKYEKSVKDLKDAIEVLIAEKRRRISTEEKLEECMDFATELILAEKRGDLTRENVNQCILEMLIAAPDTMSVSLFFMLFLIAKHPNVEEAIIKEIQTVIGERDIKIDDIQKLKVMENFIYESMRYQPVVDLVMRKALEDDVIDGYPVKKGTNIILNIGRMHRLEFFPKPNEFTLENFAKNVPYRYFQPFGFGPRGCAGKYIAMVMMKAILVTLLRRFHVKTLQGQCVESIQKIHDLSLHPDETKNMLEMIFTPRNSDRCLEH
In kind it is human (placenta microsomal fraction). As to conditions: for inhibition at 0.25 µM: inhibitor 0.25 uM; for inhibition at 0.25 µM / inhibition at 2.5 µM / inhibition at 0.1 µM / inhibition at 1 µM: read-out: Percent Inhibition; for inhibition at 2.5 µM: inhibitor 2.5 uM; for inhibition at 0.1 µM: inhibitor 0.1 uM; for inhibition at 1 µM: inhibitor 1.0 uM. How it is done: In this assay, the inhibitor is preincubated with the enzyme prior to assaying for enzyme activity in the presence of high substrate levels.
(§1) In the time-dependent assay, an amount of the enzyme inhibitor in 100 ul of the assay buffer described above which will provide assay concentrations which are approximately one and ten times the IC50 values are added to 35 ml centrifuge tubes containing 600 ul of the NADPH generating system described above. […] These preparations are mixed using a vortex mixer and incubated for 0, 10, 20 or 40 minutes at 25° C. […] Following vortexing, the enzyme incubation is continued for 10 minutes before being terminated by the addition of chloroform. The amount of radioactivity in the aqueous fraction is determined by scintillation procedures. […] Therefore, the percent enzyme inhibition is expressed as a percentage of the 100 percent enzyme activity value.

Assay [2] has as its target T1, aromatase. In kind it is biochemical, human (placenta microsomal fraction). How it is done:
Assay buffer contains 100 mM KCl, 10 mM KH2 PO4, 10 mM dithiothreitol and 1 mM EDTA at pH 8.0. […] These preparations are mixed using a vortex mixer and incubated for 30 minutes at 37° C. with a 95% O2 :5% CO2 gas phase in a Dubinoff shaking incubator.
The enzymatic reaction is terminated by the addition of 10 ml of CHCl3. After vortexing for 20 sec., aqueous/organic emulsions are dispersed and phase separation achieved following centrifugation at 600×g for 10 min. Duplicate 500 ul samples of the upper aqueous phase of each incubation sample are added to 10×75 mm culture tubes. To these tubes, 500 ul of cold 0.25% dextran-coated charcoal suspension is added, vortexed, incubated for 15 min. at 4° C., then centrifuged at 2600×g in a refrigerated centrifuge (4° C.). The supernatant fraction is decanted into a 20 ml scintillation vial and 15 ml of aqueous scintillation cocktail is added. The radioactivity of ^3 H2 O resulting from liberated 1 and 2 tritium atoms during the enzymatic reaction is determined by counting for 10 min. in a liquid scintillation counter. This assay procedure is adapted from the procedures of Reed et al, J. Biol. Chem., 251, 1625 (1976), and Thompson et al, J. Biol. Chem., 249, 5364 and 5374 (1974).

Assay [3] has as its target T1, aromatase. The format is human (placenta microsomal fraction). As to conditions: for Ki: time-dependent assay, Table 2, read-out: Apparent Ki. How it is done:
as §1
Compounds which show time-dependent inhibition are then assayed to establish the inhibition constant, Ki, which is the apparent dissociation constant for the enzyme-inhibitor complex. This determination requires measurements at initial velocities of enzyme reaction. […] The enzyme half-life (t1/2) at these different inhibitor concentrations ([In]) is used to determine the Ki by the linear regression equation of the t1/2 vs. 1/[In]. The Ki is equivalent to the inhibitor concentration when t1/2 is equal to zero.

`C[C@]12C=CC(=O)C=C1CC[C@@H]1[C@@H]2CC[C@]2(C)OC(=O)CC[C@@H]12` [1-dehydrotestololactone, 1,2,3,4,4a,4b,7,9,10,10a-Decahydra-2-hydroxy-2,4b-dimethyl-7oxo-l-phenanthrene-propionic acid O-lactone]: the inhibition at 0.25 µM was 0% at aromatase [1] (preincubation 0 minutes), 3.6% on aromatase [1] (preincubation 20 minutes) and 36.1% at aromatase [1] (preincubation 40 minutes). The figures for the inhibition at 2.5 µM at aromatase [1] (preincubation 0 minutes), at aromatase [1] (preincubation 20 minutes) and at aromatase [1] (preincubation 40 minutes) were 24.7%, 82.7% and 96.9%, respectively. Also, on aromatase [2], it took 2500 nM to reach half-maximal inhibition (IC50). Besides, the Ki at aromatase [3] was found to be 7900 nM.

Consider `C=C=C[C@]12CCC(=O)C=C1CC[C@@H]1[C@@H]2CC[C@]2(C)C(=O)CC[C@@H]12` [10-(1,2-propadienyl)estr-4-ene-3,17-dione], for which, at aromatase [1], the “Activity compared with known therapeutic agents / known aromatase inhibitors” value was “superior activity to known therapeutic agents; also recorded: superior to known aromatase inhibitors” and the “Time-dependent inhibition of aromatase” value is “significant time-dependent inhibition of aromatase”. In addition, the “Percent Inhibition” value on aromatase [1] (1 µM) is 50.2 and 69.2 and 84.0. In addition, the “Enzyme affinity compared with other known inhibitors” value at aromatase [2] is “greater enzyme affinity than other known inhibitors”. In addition, at aromatase [3], the “Affinity for the enzyme site relative to natural substrate testosterone (times greater)” value is recorded as “three times greater”, the “Binding to the enzyme” value is reported as “irreversibly bound to the enzyme”, the “Factor by which enzyme affinity exceeds that of 1-dehydrotestololactone” value is listed as 58.1 and the “Factor by which enzyme affinity exceeds that of aminoglutethimide” value is reported as 1,491.2. Moreover, the “Factor by which enzyme affinity exceeds that of androsta-1,4,6-triene-3,17-dione” value at aromatase [3] amounted to 8.1.

`C[C@]12C=CC(=O)C=C1C=C[C@@H]1[C@@H]2CC[C@]2(C)C(=O)CC[C@@H]12` [Androsta-1,4,6-triene-3,17-dione]: the inhibition at 0.1 µM at aromatase [1] (preincubation 0 minutes) is 20.5%; on aromatase [1] (preincubation 20 minutes), 45.5%; on aromatase [1] (preincubation 40 minutes) it was 54.8%. For the same compound, the inhibition at 1 µM worked out at 88.8% at aromatase [1] (preincubation 0 minutes), 92.8% at aromatase [1] (preincubation 20 minutes) and 95.2% on aromatase [1] (preincubation 40 minutes). The same compound yielded a 50% inhibitory concentration (IC50) against aromatase [2] of 100 nM. Moreover, on aromatase [3], the Ki was 110 nM.

The term inhibition denotes the share of the control response that was lost under treatment. A word on the IC50: it is the point on the concentration scale where inhibition reaches its midpoint. A higher IC50 goes with lower potency.
